Laboratory results: patent US20060275362A1, “Rapidly-dissolving pharmaceutical composition for inhibiting ovulation” (priority 2005, published 2006)

Assay: Effect of Tween 80 on the solubility of drospirenone in water
Type: physicochemical
Settings: Solubility enhancer Tween 80 (Polysorbate 80), drug:enhancer 1:9 parts by weight, agitated approximately 22 hours, versus water alone

% Increase in the Solubility of Drospirenone as Determined by HPLC: 42%
SMILES: C[C@]12CCC(=O)C=C1[C@@H]1C[C@@H]1[C@H]1[C@@H]3[C@@H]4C[C@@H]4[C@@]4(CCC(=O)O4)[C@@]3(C)CC[C@@H]12 [Drospirenone, (2′S, 6R, 7R, 8R, 9S, 10R, 13S, 14S, 15S, 16S)-1,3′, 4′, 6,7,8,9, 10, 11, 12, 13, 14, 15, 16, 20, 21-hexadecahydro-10, 13-dimethylspiro[17H-dicyclopropa[6,7:15,16]cyclopenta[a]phenanthrene-17,2′(5′H)-furan]-3,5′(2H)-dione]
